Measured values taken from patent US11319311B2, “Crystalline forms of Actinomycin D for treatment of cancer” (TRANSGENEX NANOBIOTECH, INC., priority 2018, dated 2022).

Tested on: human sarcoma cell line SK-ES-1
Test: Tumor sphere formation assay
Type: cell-based
Source text: Cancer stem cells (CSCs) are defined as a small subset of cells within a tumor with the ability to self-renew and often drive tumor progression and recurrence after chemotherapy treatment (Xiaochen Zhou, et al. 2015. A Reliable Parameter to Standardize the Scoring of Stem Cell Spheres. PLOS One 10(5); e0127348). It is important to study the responses of cancer stem cells or the tumors treated with the new molecular complexes. We have assessed cancer stem cells (CSCs) growth using tumor sphere formation assay, which involves culturing cancer cells in low attachment plates in serum free media. Sphere size and diameter was measured using Image) software and statistical analysis was performed using Graph Pad Prism Software.
The stem cell culture medium is prepared for 500 ml (250 ml of Dulbecco's Modified Eagle Medium (DMEM) (ATCC® 30-2002) plus 250 ml of F-12K medium (ATCC® 30-2004)) using 20 ng/ml epidermal growth factor, 10 ng/ml basic fibroblast growth factor, 5 μg/ml insulin and 0.4% Bovine Serum Albumin. All preparation methods known to the person skilled in the art.
The cancer cell line used in this study was human sarcoma cell line SK-ES-1. The cells were seeded in a density of 200 per well per 200 μl in a 96-well Ultra-Low Attachment plate (Corning, Cat #3474, USA), this plate is specially treated for stem cell growth or tumor culture. On the day 1 of seeding, 100 μl of cell solution was added into the plate. […]
On the day 6 of seeding, 10 μl of NucBlue Live Cell Stain ReadyProbes (Invitrogen Cat #R37605, USA) were added into each well for staining to visualize the live cells under the blue fluorescent light. […] Then the plate was brought to the Keyence imaging device (Keyence America, All-in-One Fluorescence Microscope BZ-X800, USA) for image scanning. […]
The sum of sphere image area of every individual sphere, with diameter over 50 μm, in each well was calculated. […] The sphere image area was calculated based on the sum area of spheres with diameter over 50 μm in each treatment well, and significance was declared at P<0.05 for the bars indicated by *, and P<0.001 by **. […]

In the case of `CCCOC(=O)c1ccc(O)cc1.Cc1c2oc3c(C)ccc(C(=O)NC4C(=O)NC(C(C)C)C(=O)N5CCCC5C(=O)N(C)CC(=O)N(C)C(C(C)C)C(=O)OC4C)c3nc-2c(C(=O)NC2C(=O)NC(C(C)C)C(=O)N3CCCC3C(=O)N(C)CC(=O)N(C)C(C(C)C)C(=O)OC2C)c(N)c1=O` (stereo not drawn) [DACT-propylparaben], the sphere area (SK-ES-1 spheres with diameter over 50 μm, day 6 of seeding, compared with pure parent molecule DACT) is reported as “noticeable reduction in sphere area”, the “tumor spheres size (SSS)” value (compared with that of the parent molecule) is reported as “reduced tumor spheres size (SSS)” and the “tumor sphere formation efficiency (SFE)” value (compared with the parent molecule) is reported as “reduced tumor sphere formation efficiency (SFE)”.
